Measured values published in patent US12098148B2, “Therapeutic compounds” (C4X Discovery Limited, priority 2018, dated 2024).

What was measured:
[1] = tested on: NQO1 mRNA in BEAS-2B cells; experiment: Beas2B NQO1 mRNA cell based assay; parameters: species or system human; details: Homo sapiens, BEAS-2B, 24 h, 24 h compound treatment, increase in NQO1 mRNA vs vehicle (0.1% DMSO), read-out: EC50
In short: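 Relative NQO1 transcript level derived by ΔΔCT with human β-actin as internal control, using direct-lysate one-step RT-qPCR. Cells were BEAS-2B, plated overnight then treated with compound for 24 h.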

[2] = target: human KEAP1 (N-term, residues 321-609) (Homo sapiens, UniProt Q14145); experiment: biochemical;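 also: fluorescence polarization competition assay of Kelch domain binding to NRF2, 12-point 1:3 dilution series from 10 µM, read after 1 h at room temperature, floor 10 nM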
Sequence of human KEAP1 (N-term, residues 321-609) (Q14145 321-609): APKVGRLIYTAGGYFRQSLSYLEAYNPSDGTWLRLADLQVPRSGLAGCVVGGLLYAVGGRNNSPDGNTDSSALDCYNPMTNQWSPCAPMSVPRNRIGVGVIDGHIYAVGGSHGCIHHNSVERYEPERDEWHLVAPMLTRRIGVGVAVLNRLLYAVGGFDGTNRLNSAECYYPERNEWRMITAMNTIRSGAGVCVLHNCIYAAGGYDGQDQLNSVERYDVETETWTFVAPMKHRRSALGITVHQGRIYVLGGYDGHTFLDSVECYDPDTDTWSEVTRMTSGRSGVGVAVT

Row | SMILES | IC50 [2] | EC50 [1]
1 | Cn1cnc(COc2ccc(Cl)c3c2[C@@H](CN2Cc4ccccc4C2=O)N(C(=O)[C@@H]2CCCC[C@@H]2C(=O)O)CC3)c1C(F)F [Example 56, (1S,2R)-2-((S)-5-Chloro-8-((5-(difluoromethyl)-1-methyl-1H-imidazol-4-yl)methoxy)-1-((1-oxoisoindolin-2-yl)methyl)-1,2,3,4-tetrahydroisoquinoline-2-carbonyl)cyclohexane-1-carboxylic acid] | 4.2 nM | 4.8 nM
2 | CC(C)n1cc(COc2ccc(F)c3c2[C@@H](CN2Cc4ccccc4C2=O)N(C(=O)[C@@H]2CCCC[C@@H]2C(=O)O)CC3)nn1 [Example 58, (1S,2R)-2-((S)-5-fluoro-8-((1-isopropyl-1H-1,2,3-triazol-4-yl)methoxy)-1-((1-oxoisoindolin-2-yl)methyl)-1,2,3,4-tetrahydroisoquinoline-2-carbonyl)cyclohexane-1-carboxylic acid] | 8 nM | 68 nM
3 | Cc1ccc(OCc2cn(C(C)C)nn2)c2c1CCN(C(=O)[C@@H]1CCCC[C@@H]1C(=O)O)[C@@H]2CN1Cc2ccccc2C1=O [Example 59, (1S,2R)-2-((S)-8-((1-isopropyl-1H-1,2,3-triazol-4-yl)methoxy)-5-methyl-1-((1-oxoisoindolin-2-yl)methyl)-1,2,3,4-tetrahydroisoquinoline-2-carbonyl)cyclohexane-1-carboxylic acid] | 11 nM | 21 nM
4 | O=C(O)[C@H]1CCCC[C@H]1C(=O)N1CCc2c(Br)ccc(OCc3nnc4ccccn34)c2[C@H]1CN1CCCC1=O [Example 64, (1S,2R)-2-((S)-8-[(1,2,4]triazolo[4,3-a]pyridin-3-ylmethoxy)-5-bromo-1-((2-oxopyrrolidin-1-yl)methyl)-1,2,3,4-tetrahydroisoquinoline-2-carbonyl)cyclohexane-1-carboxylic acid] | 6.3 nM | 23 nM
5 | O=C(O)[C@H]1CCCC[C@H]1C(=O)N1CCc2c(Br)ccc(OCc3noc4ccccc34)c2[C@H]1CN1CCCC1=O [Example 67] | 8.5 nM | 4.8 nM
6 | O=C(O)[C@H]1CCCC[C@H]1C(=O)N1CCc2c(Cl)ccc(OCc3ccccn3)c2[C@H]1CN1CCCC1=O [Example 69, (1S,2R)-2-((S)-5-chloro-1-((2-oxopyrrolidin-1-yl)methyl)-8-(pyridin-2-ylmethoxy)-1,2,3,4-tetrahydroisoquinoline-2-carbonyl) cyclohexane-1-carboxylic acid] | 6.9 nM | 140 nM
7 | Cc1cc(COc2ccc(Cl)c3c2[C@@H](CN2CCCC2=O)N(C(=O)[C@@H]2CCCC[C@@H]2C(=O)O)CC3)ns1 [Example 70, (1S,2R)-2-((S)-5-Chloro-8-((5-methylisothiazol-3-yl)methoxy)-1-((2-oxopyrrolidin-1-yl)methyl)-1,2,3,4-tetrahydroisoquinoline-2-carbonyl) cyclohexane-1-carboxylic acid] | 5.9 nM | 55 nM
8 | O=C(O)[C@H]1CCCC[C@H]1C(=O)N1CCc2c(Cl)ccc(OCc3cccnc3)c2[C@H]1CN1CCCC1=O [Example 78, (1S,2R)-2-((S)-5-Chloro-1-((2-oxopyrrolidin-1-yl)methyl)-8-(pyridin-3-ylmethoxy)-1,2,3,4-tetrahydroisoquinoline-2-carbonyl) cyclohexane-1-carboxylic acid] | 7.8 nM | 57 nM
9 | CCn1nnc(COc2ccc(Cl)c3c2[C@@H](CN2CCCC2=O)N(C(=O)[C@@H]2CCCC[C@@H]2C(=O)O)CC3)c1C(F)F [Example 79, (1S,2R)-2-((S)-5-Chloro-8-((5-(difluoromethyl)-1-ethyl-1H-1,2,3-triazol-4-yl)methoxy)-1-((2-oxopyrrolidin-1-yl)methyl)-1,2,3,4-tetrahydroisoquinoline-2-carbonyl)cyclohexane-1-carboxylic acid] | 6.7 nM | 1.2 nM
10 | C[C@H](CC(=O)O)C(=O)N1CCc2c(Cl)ccc(OCc3noc4ccccc34)c2[C@H]1CN1CCCC1=O [Example 80, (R)-4-((S)-8-(Benzo[d]isoxazol-3-ylmethoxy)-5-chloro-1-((2-oxopyrrolidin-1-yl)methyl)-3,4-dihydroisoquinolin-2(1H)-yl)-3-methyl-4-oxobutanoic acid] | 4.8 nM | 110 nM

The next lines start with results.

Row | IC50 [2] | SMILES | EC50 [1]
11 | 6.6 nM | CC(C)n1cc(COc2ccc(Cl)c3c2[C@@H](CN2Cc4ccccc4C2=O)N(C(=O)[C@@H]2CCCC[C@@H]2C(=O)O)CC3)nn1 [Example 57, (1S,2R)-2-((S)-5-chloro-8-((1-isopropyl-1H-1,2,3-triazol-4-yl)methoxy)-1-((1-oxoisoindolin-2-yl)methyl)-1,2,3,4-tetrahydroisoquinoline-2-carbonyl)cyclohexane-1-carboxylic acid] | 2.7 nM
12 | 96 nM | CC(C)n1cc(COc2ccc(C#N)c3c2[C@@H](CN2Cc4ccccc4C2=O)N(C(=O)[C@@H]2CCCC[C@@H]2C(=O)O)CC3)nn1 [Example 60, (1S,2R)-2-((S)-5-cyano-8-((1-isopropyl-1H-1,2,3-triazol-4-yl)methoxy)-1-((1-oxoisoindolin-2-yl)methyl)-1,2,3,4-tetrahydroisoquinoline-2-carbonyl)cyclohexane-1-carboxylic acid] | 2.8 nM
13 | 5.6 nM | COc1ccc(OCc2cn(C(C)C)nn2)c2c1CCN(C(=O)[C@@H]1CCCC[C@@H]1C(=O)O)[C@@H]2CN1Cc2ccccc2C1=O [Example 61, (1S,2R)-2-((S)-8-((1-isopropyl-1H-1,2,3-triazol-4-yl)methoxy)-5-methoxy-1-((1-oxoisoindolin-2-yl)methyl)-1,2,3,4-tetrahydroisoquinoline-2-carbonyl)cyclohexane-1-carboxylic acid] | 63 nM
14 | 14 nM | CC(C)n1cc(COc2ccc(C(F)(F)F)c3c2[C@@H](CN2Cc4ccccc4C2=O)N(C(=O)[C@@H]2CCCC[C@@H]2C(=O)O)CC3)nn1 [Example 62, (1S,2R)-2-((S)-8-((1-isopropyl-1H-1,2,3-triazol-4-yl)methoxy)-1-((1-oxoisoindolin-2-yl)methyl)-5-(trifluoromethyl)-1,2,3,4-tetrahydroisoquinoline-2-carbonyl)cyclohexane-1-carboxylic acid] | 120 nM
15 | 9.1 nM | O=C(O)[C@H]1CCCC[C@H]1C(=O)N1CCc2c(Br)ccc(O[C@H]3CCN(C(=O)c4cncs4)C3)c2[C@H]1CN1CCCC1=O [Example 63, (1S,2R)-2-((S)-5-bromo-1-((2-oxopyrrolidin-1-yl)methyl)-8-(((S)-1-(thiazole-5-carbonyl)pyrrolidin-3-yl)oxy)-1,2,3,4-tetrahydroisoquinoline-2-carbonyl)cyclohexane-1-carboxylic acid] | 84 nM
16 | 11 nM | Cc1cnc(COc2ccc(Br)c3c2[C@@H](CN2CCCC2=O)N(C(=O)[C@@H]2CCCC[C@@H]2C(=O)O)CC3)s1 [Example 65, (1S,2R)-2-((S)-5-bromo-8-((5-methylthiazol-2-yl)methoxy)-1-((2-oxopyrrolidin-1-yl)methyl)-1,2,3,4-tetrahydroisoquinoline-2-carbonyl) cyclohexane-1-carboxylic acid] | 97 nM
17 | 5.7 nM | CC(C)c1nc(COc2ccc(Br)c3c2[C@@H](CN2CCCC2=O)N(C(=O)[C@@H]2CCCC[C@@H]2C(=O)O)CC3)no1 [Example 66, (1S,2R)-2-((S)-5-bromo-8-((5-isopropyl-1,2,4-oxadiazol-3-yl)methoxy)-1-((2-oxopyrrolidin-1-yl)methyl)-1,2,3,4-tetrahydroisoquinoline-2-carbonyl) cyclohexane-1-carboxylic acid] | 27 nM
18 | 8.4 nM | O=C(O)[C@H]1CCCC[C@H]1C(=O)N1CCc2c(Cl)ccc(OCc3nsc4ccccc34)c2[C@H]1CN1CCCC1=O [Example 68, (1S,2R)-2-((S)-8-(Benzo[d]isothiazol-3-ylmethoxy)-5-chloro-1-((2-oxopyrrolidin-1-yl)methyl)-1,2,3,4-tetrahydroisoquinoline-2-carbonyl)cyclohexane-1-carboxylic acid] | 32 nM
19 | 6.5 nM | O=C(O)[C@H]1CCCC[C@H]1C(=O)N1CCc2c(Cl)ccc(OCc3ccsn3)c2[C@H]1CN1CCCC1=O [Example 71, (1S,2R)-2-((S)-5-Chloro-8-isothiazol-3-ylmethoxy)-1-((2-oxopyrrolidin-1-ylmethyl)-1,2,3,4-tetrahydroisoquinoline-2-carbonyl) cyclohexane-1-carboxylic acid] | 78 nM
20 | 6.5 nM | CC(C)n1cc(COc2ccc(Br)c3c2[C@@H](CN2C[C@H](C)CC2=O)N(C(=O)[C@@H]2CCCC[C@@H]2C(=O)O)CC3)nn1 [Example 75, (1S,2R)-2-((S)-5-Bromo-8-((1-isopropyl-1H-1,2,3-triazol-4-yl)methoxy)-1-(((R)-4-methyl-2-oxopyrrolidin-1-yl)methyl)-1,2,3,4-tetrahydroisoquinoline-2-carbonyl) cyclohexane-1-carboxylic acid] | 8.3 nM
21 | 6.7 nM | CC(C)n1cc(COc2ccc(Br)c3c2[C@@H](CN2CC4(CC4)CC2=O)N(C(=O)[C@@H]2CCCC[C@@H]2C(=O)O)CC3)nn1 [Example 76, (1S,2R)-2-((S)-5-bromo-8-((1-isopropyl-1H-1,2,3-triazol-4-yl)methoxy)-1-((6-oxo-5-azaspiro[2.4]heptan-5-yl)methyl)-1,2,3,4-tetrahydroisoquinoline-2-carbonyl) cyclohexane-1-carboxylic acid] | 2.5 nM
22 | 7.8 nM | CC(C)n1cc(COc2ccc(Br)c3c2[C@@H](CN2C[C@@H](C)CC2=O)N(C(=O)[C@@H]2CCCC[C@@H]2C(=O)O)CC3)nn1 [Example 77, (1S,2R)-2-((S)-5-Bromo-8-((1-isopropyl-1H-1,2,3-triazol-4-yl)methoxy)-1-(((S)-4-methyl-2-oxopyrrolidin-1-yl)methyl)-1,2,3,4-tetrahydroisoquinoline-2-carbonyl) cyclohexane-1-carboxylic acid] | 6.7 nM
